Entries after “also recorded” stand apart in the source; their conditions may differ.
What was measured:
[1] = tested on: bovine retinal pericytes (BRPC); test: Cell growth assay (DNA content, cell number) in bovine retinal pericytes; assay type: cell-based; settings: for stimulation of proliferation: 5, 10 or 15% FBS
Description: (§1) A cell growth assay was performed as follows: Cells were plated onto 12-well culture plates and incubated overnight. The cells were treated with vehicle, vascular endothelial growth factor (VEGF, R & D Systems, Minneapolis, Minn.) at 25 ng/ml, serum, compounds, or combinations thereof. The medium is changed during the incubation period, with fresh medium and fresh test compound added every 2 days. After incubation for indicated time period at 37° C., the cells were lysed in 0.1% SDS and DNA content was measured by means of Hoechst-33258 dye and a fluorometer (model TKO-100, Hoefer Scientific Instruments, San Francisco, Calif.). It has been shown that total cellular DNA content measured in this manner correlates closely with actual cell number as determined by hemocytometer counting of trypsinized cells.
Determinations were performed in triplicate and all experiments were repeated at least three times. Results are expressed as the mean ±standard deviation, unless otherwise indicated. Statistical analysis employed Student's t-test or analysis of variance to compare quantitative data populations with normal distributions and equal variance. Data were analyzed using the Mann-Whitney rank sum test or the Kruskal-Wallis test for populations with non-normal distributions or unequal variance. A P-value of <0.05 was considered statistically significant.
Primary cultures of bovine retinal pericytes (BRPC) were isolated by homogenization and a series of filtration steps as described in King et al., J. Clin. Invest., 1985, 75:1028-36. BRPC were cultured in Dulbecco's modified Eagle's medium (DMEM, Gibco BRL, Grand Island, N.Y.) with 5.5 mM glucose and 20% fetal bovine serum (FBS, Gibco BRL, Grand Island, N.Y.). Cells were characterized for homogeneity by their immunoreactivity with monoclonal antibody 3G5 [Nayak et al., J. Exp. Med. 1988, 167:1003-15]. Cells remained morphologically unchanged under these conditions, as confirmed by light microscopy. Only cells from passages 2 through 7 were used for the experiments.
A cell growth assay was performed as described above in Example 1 and the medium was changed, with fresh medium and fresh test compound added every 2 or 3 days, preferably every 2 days. […] At 20% FBS a six to seven fold increase of total DNA was detected.

[2] = tested on: Bovine retinal pigment epithelial cells (RPEC); test: Cell growth assay in bovine retinal pigment epithelial cells; assay type: cell-based; settings: 15 μg/ml
Description: as §1
Bovine retinal pigment epithelial cells (RPEC) were isolated by gentle scraping after removal of the neural retina and incubation with 0.2% collagenase as described in King et al., Diabetes, 1987, 36:1460-7. RPEC were cultured in DMEM with 5.5 mM glucose and 10% calf serum (CS, Gibco BRL, Grand Island, N.Y.). Cells were cultured in 5% CO2 at 37° C., and media were changed every other days. Cells were characterized for their homogeneity by immunoreactivity with anti-cytokeratin antibody for RPEC. […]

[3] = tested on: retinal neovascularization; test: Oxygen-pulse induced retinal neovascularization in newborn rats; assay type: in vivo; settings: for retinal neovascular score (sum of quadrant scores): P18, vehicle 6.41
Description: In contrast to the assay for anti-angiogenesis effect of BPI protein products in neonatal mice described in part A above, experiments were conducted in newborn rats Crj:CD(SD)IGS (Charles River, Japan). Unlike the method described in part A above of producing ischemia-induced retinal neovascularization by exposing neonatal mice to a constant level of oxygen at 75±2% for 5 days, newborn rats were exposed to oxygen pulses as described below.
The newborn rats within a few hours after birth were put into the oxygen chamber (780 mm×520 mm×520 mm). The oxygen level in the experimental chamber was controlled with a computer program (Oxycycler, Reming Bioinstruments, N.Y., US). The oxygen level was maintained at 80% for 20.5 hours, then rapidly dropped to 21% for 30 minutes before a gradual return to 80% during the following 3 hours. The program was run for 11 cycles (24 hour per cycle). At the end of 11th cycle (postnatal day 11 (P11)), mothers and newborn rats were transferred to room air condition and kept for 7 days. For a seven day period step newborn rats were injected intraperitoneally with XMP.679 at doses of 2, 6 and 20 mg/kg. On P18, the rats were sacrificed, and the left eyes were enucleated. The eyes were fixed in 4% paraformaldehyde (PFA) for 1 hour. Using scissors, the cornea and sclera were removed from the eyecup. The lens was removed with tweezers, and the vitreous was thoroughly removed with tweezers and scissors. The semi-spherical retina was fixed in 4% PFA and stained, using the method of adenosine diphosphatase (ADPase) histochemistry. Abnormal neovascularization was assessed on P18 by histochemically staining retina for ADPase activity. This procedure preferentially stains retinal vascular endothelium and microglia in rats of this age. The retina was incubated in ADPase incubation medium at 37° C. for 1 hour with gentle agitation. It was then washed thoroughly in cold saline, and treated in a 1:10 dilution of ammonium sulfide for 1 minute. The retina was then washed in […] to remove sulfide. The retina was placed in a small drop of liquid on a saline-coated slide. […] The retina was put in a layer of Perma Fluor® covered with a cover glass. Glomerular buds (tiny popcorn) upon the surface of the regina, fan shaped neovascular fronds, and ridges (vascular complexes that cause a distinct elongate elevation of the retinal surface, and which usually contain several vessels running parallel to the ciliary body) were identified.
Criteria for scoring neovascular intensity were as follows: 0: Nothing; 1: <5 buds; 2: >5 buds, or a frond; 3: Ridge<half of quadrant; or 4: Ridge>half of quadrant. The retinal neovascular scores were equal to the sum of quadrant scores. […]

XMP.679: BPI-derived peptide derived from BPI domain II, SEQ ID NO: 3 (KLFKAQAKAKG; XMP.679; listed as Homo sapiens)
stimulation of proliferation ([1]; 5 μg/mL): ~2 fold | growth increase as potency of 20% FBS ([1]; 5 μg/ml, 5% FBS): 30 to 40% | growth compared with 20% FBS ([1]; 5 μg/ml, 10% FBS): equaled the effect of 20% FBS | retinal pericyte proliferation ([1]; 5 μg/ml, 10% FBS): greatest increase | growth compared with 15 or 20% FBS (trend) ([1]; 5 μg/ml, 15% FBS): may have more growth effect than either 15 or 20% FBS | stimulation of proliferation ([1]; 15 μg/mL): no enhancement | effect on growth ([1]; 15 μg/ml (higher concentration), 5% FBS, 3 or 6 days): did not increase growth; also recorded: did not show-a growth stimulating effect | effect on growth ([1]; 15 μg/ml, 10% FBS): did not have much growth effect | retinal pericyte proliferation ([1]; 20 μg/ml, 10% FBS): did not | pericyte DNA content ([1]; 1, 5, 10, and 15 μg/ml, 10% FBS): Statistically significant increases | effect on growth ([1]; 1 or 5 μg/ml, 5% FBS, 6 days): increased growth | effect on growth ([1]; 15% FBS, concentration not given): did not increase the growth of pericyte in 15% FBS to any significant amount | growth promoting effect [2]: 20 to 30% | retinal neovascular score (sum of quadrant scores) ([3]; 2 mg/kg/day intraperitoneal): 7.29 | retinal neovascular score (sum of quadrant scores) ([3]; 6 mg/kg/day intraperitoneal): 4.59 | change of retinal neovascularization score versus vehicle ([3]; 6 mg/kg, differences not statistically significant): reduced | retinal neovascular score (sum of quadrant scores) ([3]; 20 mg/kg/day intraperitoneal): 5.56

— US7291451B2, “Modulation of pericyte proliferation” (XOMA Technology Ltd., priority 2000, dated 2007)
